Assay results reported in article PMC9352556, “Glycogen synthase kinase homolog Rim11 regulates lipid synthesis through the phosphorylation of Pah1 phosphatidate phosphatase in yeast” (The Journal of Biological Chemistry, 2022).
Each block holds one molecule with its values, some of them ahead of it.

How the values were obtained:
[1] = biological target: T1, Pah1 (Saccharomyces cerevisiae, UniProt P32567); assay: release of […] from […]PA, Triton X-100/PA mixed micelles; type: biochemical; conditions: unphosphorylated Pah1; surface concentration of PA in micelles; cooperative, n = 3.4; 1 mM MgCl2, pH 7.5, 30 °C; labelled compound
T1 construct: unphosphorylated
T1 sequence (P32567 1-862): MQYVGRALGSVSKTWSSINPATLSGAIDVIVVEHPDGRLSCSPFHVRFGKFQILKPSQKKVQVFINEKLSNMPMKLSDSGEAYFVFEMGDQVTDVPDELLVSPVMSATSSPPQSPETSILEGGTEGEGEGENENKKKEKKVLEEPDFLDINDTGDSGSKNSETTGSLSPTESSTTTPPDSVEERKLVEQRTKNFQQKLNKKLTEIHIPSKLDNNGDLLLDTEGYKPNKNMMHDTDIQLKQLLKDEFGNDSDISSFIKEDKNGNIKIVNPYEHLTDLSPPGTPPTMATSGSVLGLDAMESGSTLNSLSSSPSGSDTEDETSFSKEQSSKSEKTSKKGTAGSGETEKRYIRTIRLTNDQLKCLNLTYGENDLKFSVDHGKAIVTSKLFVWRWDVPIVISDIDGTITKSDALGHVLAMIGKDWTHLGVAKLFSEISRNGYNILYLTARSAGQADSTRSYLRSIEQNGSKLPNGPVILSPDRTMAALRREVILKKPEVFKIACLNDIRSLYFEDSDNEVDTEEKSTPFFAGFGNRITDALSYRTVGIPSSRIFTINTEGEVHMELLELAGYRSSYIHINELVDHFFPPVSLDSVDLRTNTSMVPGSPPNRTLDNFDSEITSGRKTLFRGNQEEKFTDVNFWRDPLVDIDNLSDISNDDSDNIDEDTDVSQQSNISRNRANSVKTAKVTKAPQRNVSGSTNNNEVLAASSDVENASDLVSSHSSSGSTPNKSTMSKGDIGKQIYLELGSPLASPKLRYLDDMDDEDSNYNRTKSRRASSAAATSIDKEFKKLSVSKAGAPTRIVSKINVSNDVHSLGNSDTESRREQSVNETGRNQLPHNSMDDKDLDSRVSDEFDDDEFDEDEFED

[2] = substrate: Nc1ncnc2c1ncn2[C@@H]1O[C@H](COP(=O)(O)OP(=O)(O)OP(=O)(O)O)[C@@H](O)[C@H]1O; assay: purified protein; type: biochemical, Saccharomyces cerevisiae; conditions: co-substrate 0.25 μM E. coli-expressed Pah1, 10 mM MgCl2, pH 7.5, 30 °C, labelled compound

Km [1]: 4.2 mol %
Molecule: phosphatidate

B1: Rim11 (Saccharomyces cerevisiae S288C) (protein)
chain: MNIQSNNSPNLSNNIVSKQVYYAHPPPTIDPNDPVQISFPTTEVVGHGSFGVVFATVIQETNEKVAIKKVLQDKRFKNRELEIMKMLSHINIIDLKYFFYERDSQDEIYLNLILEYMPQSLYQRLRHFVHQRTPMSRLEIKYYMFQLFKSLNYLHHFANVCHRDIKPQNLLVDPETWSLKLCDFGSAKQLKPTEPNVSYICSRYYRAPELIFGATNYTNQIDIWSSGCVMAELLLGQPMFPGESGIDQLVEIIKILGTPSKQEICSMNPNYMEHKFPQIKPIPLSRVFKKEDDQTVEFLADVLKYDPLERFNALQCLCSPYFDELKLDDGKINQITTDLKLLEFDENVELGHLSPDELSSVKKKLYPKSK
notes: purified from S. cerevisiae (pSK001, pYES2); endogenously phosphorylated (Tyr199)
Km [2]: 30 µM
